Assay: Levels of prodrug 52 in rat plasma in vivo
Description: Female CD rats (age, 57 to 70 days; n=3/group; Charles River, St-Constant, Canada) were administered a single bolus intravenous (tail vein) dose of compound 52 (dissolved in 0.85% NaCl) at 15.8 mg/kg of body weight, corresponding to 10 mg/kg of moxifloxacin 3. Animals were sacrificed by CO2 inhalation at the specified time points after i.v. dosing to evaluate the levels of 52 in plasma. Blood samples were collected by cardiac puncture and transferred in BD Vacutainer tubes (green cap) for plasma isolation. The plasma components were obtained by centrifugation of these samples and they were stored at −80° C. until analysis.
For the dosage of prodrug in the plasma, the standards and QCs were prepared (in duplicate) as follows: to 100 μl of blank plasma was added a spiking solution (5 μl) of the prodrug (52 in water). The range of the standards (8 levels) was from 0.06 to 25 μM and the QC levels were 0.18, 1.87 and 18.75 μM. Four samples of blank plasma without prodrug were also prepared. […]
Moxifloxacin 3 resulting from the cleavage of the prodrug was analyzed with the same method on an Agilent 1100™ series LC/MSD Trap, The extracted sample was injected into a Zorbax™ SB-Aq column (2×30 mm, 3.5μ), using 0.1% formic acid in water(aq) and 0.1% formic acid in acetonitrile(org) as the mobile phase, at a flow rate of 0.3 ml/min. […]

COc1c(N2C[C@@H]3CCCN[C@@H]3C2)c(F)cc2c(=O)c(C(=O)OCC(=O)NC(P(=O)(O)O)P(=O)(O)O)cn(C3CC3)c12 [Compound 52, (1,1-Bisphosphonomethylcarbamoyl)methyl 1-cyclopropyl-6-fluoro-1,4-dihydro-7-((4aS,7aS)-octahydropyrrolo[3,4-b]pyridin-6-yl)-8-methoxy-4-oxoquinoline-3-carboxylate]
clearance from the blood circulation of rats, in words (FIG. 5): rapid clearance | half-life of clearance from the circulation (rat plasma, IV bolus 15.8 mg/kg, 5 min to 24 h): less than one hour
